Data from patent US10220040B2, “Compounds, compositions and methods useful for cholesterol mobilization” (Cerenis Therapeutics Holding SA, priority 2010, dated 2019).

Assays:
[1] = system: apoE−/− mice; test: ApoE−/− high-cholesterol diet model (aorta plaque progression); type: in vivo; settings: 8 weeks diet then 4 weeks 100 μg/kg/day
Description: FIG. 19A-L: Effect of P2Y13 agonist on atherosclerotic plaque progression in aortas of apoE^−/− mice. ApoE^−/− mice (n=20) were placed on a Western diet for 8 weeks followed by a 4 weeks oral gavage of vehicle or 100 μg/kg of Compound IIa. Aortas (n=10) were lipid extracted in 2:1 chloroform/methanol. FIG. 19A: the concentrations in total cholesterol were measured by HPLC and GC/MS and compared to parallel apoE−/− mice (n=10) on normal Chow diet as a baseline. FIG. 19B: quantification of the intima/media ratio (n=10). FIG. 19C: F4/80 antibody staining quantification (n=10). FIG. 19D: Oil Red O positive staining quantification (n=10). FIG. 19E: quantification of Sirius Red staining (n=10). FIG. 19F: anti-VCAM1 antibody staining quantification (n=10). The quantifications were expressed as the percentage of staining as compared to the sum of the intima and media area. *p<0.05. FIG. 19G to FIG. 19L: typical example of staining of aorta slides used for the quantifications. FIG. 19G and FIG. 19J: hematoxylin eosin staining of transversal sections of apoE^−/− mice aortas. FIG. 19H and FIG. 19K: Oil Red O staining of transversal sections of apoE^−/− mice aortas. FIG. 19I and FIG. 19L: VCAM1 antibody staining of transversal sections of apoE^−/− mice aortas.
Mice were placed for two month on Western diet (0.2% cholesterol, 21% butter milk) then dosed with Compound IIa once a day at 100 μg/kg (0.5% CMC, 0.2% Tween80) for 4 more weeks. The mice were sacrificed and the aortas were collected for biochemical and immunohistological characterizations. One set of aorta (n=10) was detached at the base of the heart and placed in a glass tube with 3 ml of chloroform-methanol 2:1 (v/v), and stigmasterol as the internal standard. Then analyzed as described above. Another set of aortas (n=10) were first extensively washed with PBS, then with 4% paraformaldehyde (500 μl) and finally with tissue tek OCT (500 μl). Next the aorta was embedded in OCT and frozen at −20° C. Three step frozen sections of 10 μm separated one from the other were processed and stained with Oil red O (ORO), Sirius red and hematoxylin/eosin. Macrophages were detected using F4/80 primary rat monoclonal antibody (Abcam) and VCAM was detected using rat anti mouse CD106 (AbDSerotec).
The prevention of progression of the plaque in aorta was further evaluated in the cholesterol diet-fed apoE−/− mice (FIG. 19). […] The collagen content of the wall was improved (FIG. 19E).

[2] = system: New Zealand rabbits; test: Plaque regression in high-cholesterol diet fed New Zealand rabbits; type: in vivo, rabbit
Description: FIG. 20A-M: Plaque regression in rabbits treated with Compound IIa. New Zealand rabbits (n=15) with atherosclerotic plaques developed after 2 months of high-cholesterol diet, were treated with Compound IIa at 30, 100 and 300 μg/kg once a day by oral gavage for 4 weeks. FIG. 20A: lipids extracted from aortas were analyzed by GC/MS for cholesterol concentration. Dark bars, unesterified cholesterol; superimposed gray bars, total cholesterol. *p<0.05. FIG. 20B, FIG. 20C and FIG. 20D: Plasma VLDL cholesterol, LDL cholesterol and HDL cholesterol were resolved as described in FIG. 2. The results are expressed as the percentage from pre-dose. FIG. 20E: apoB concentration in plasma was determined by Western blot analysis. FIG. 20F: triglycerides were measured in the plasma using the kit from Biolabo. FIG. 20G: the bile acids concentrations in liver were determined using an enzymatic kit. FIG. 20H and FIG. 20K: hematoxylin/eosin staining of aortas from rabbits dosed with vehicle (FIG. 20H) or Compound IIa at 300 μg/kg (FIG. 20K). FIG. 20I and FIG. 20L: smooth muscle cells staining of aortas from rabbits dosed with vehicle (FIG. 20I) or Compound IIa at 300 μg/kg (FIG. 20L). FIG. 20J and FIG. 20M: macrophages and monocytes staining of aortas from rabbits dosed with vehicle (FIG. 20J) or Compound IIa at 300 μg/kg (FIG. 20M).
FIG. 21A-F: Functionality of plasma from high-cholesterol diet fed rabbits treated with Compound IIa. FIG. 21A: ApoA-I concentration in plasma was measured by SELDI-TOF analysis. Purified ApoA-I from homo-sapiens (MWSELDI=28083 Da) was used as a reference for determination of rabbit ApoA-I (MWSELDI=27838 Da) concentration. The results are expressed as the percentage from pre-dose. FIG. 21B: ApoA-I mRNA level was determined using the QPCR technique. Note the overall decrease in the HDL particle size of treated animals. FIG. 21C; HDL from rabbit plasma were separated according to the size of the different HDL particles using the Lipoprint® system. The data were expressed as the percentage for each HDL subpopulation set to the HDL population in the pre-dose animals. Two main HDL particle sub-populations were quantified (high and intermediate—dark and gray bars respectively). FIG. 21D: example of lipoprotein profiles of rabbit treated with vehicle (gray line) and with Compound IIa (300 μg/kg, dark line) using the Lipoprint® separation technique. FIG. 21E and FIG. 21F: determination of cholesterol efflux capacity of plasma and rabbit HDL, respectively, using pre-loaded [^3H]-cholesterol-oxLDL macrophages. The results are expressed as a percentage of cholesterol efflux. *p<0.05, **p<0.005.
After 2 months of High Cholesterol Diet feeding (0.5% cholesterol) and a wash-out period of 2 weeks, the animals were treated (by oral gavage) once day with Compound IIa at 30, 100 and 300 μg/kg for 4 weeks. Blood samples were collected before the dose administration on day 0 and after 4 weeks of administrations of Compound IIa. After final bleeding, the liver, gallbladder, heart, thoracic and abdominal aorta from heart (left ventricle) to iliac arteries were sampled.
Rabbit aortas were fixed in neutral formalin buffer and embedded in paraffin. Longitudinal 3 μm sections were stained with Hematoxylin-Eosin-Saffron for histology analysis. The tissue sections were deparaffinized and incubated in protein-free block to inhibit the nonspecific binding of primary monoclonal antibodies used for the immunostaining of rabbit monocytes and macrophages (RAM11 obtained from Dako Corp. 1:100 dilution) and smooth muscle cell-specific actin (HHF35 obtained from Dako Corp. 1:100 dilution). Secondary biotinylated […] antibody was used at 1:300 dilution (Dako).
The issue of whether stimulation of the P2Y13r pathway could affect the regression of atherosclerosis pre-induced in the high-cholesterol diet fed rabbits was also addressed. […]

[3] = orally, up to 0.3 mg/kg for 4 weeks

In the case of `CN(C)c1ncc(CN2CCC(c3cc(O)nc(N4CCOCC4)n3)CC2)cn1` [Compound IIa, 6-[1-(2-Dimethylaminopyrimidin-5-ylmethyl)-piperidin-4-yl]-2-morpholin-4-yl-pyrimidin-4-ol], the “VCAM1 expression (antibody CD106)” value [1] is reported as “significant decreases”, the “cholesterol content of aorta” value [1] is reported as “significant decreases” and the “collagen content of the wall” value [1] is reported as “improved”. For the same compound, the “lipid staining of aorta” value [1] was “decrease”, the “macrophage content (F4/80 antibody) of the aortic wall and the plaque” value [1] was “decreased” and the “plaque area in aorta” value [1] was “significant decreases”. The “regression of atherosclerotic plaques in aorta (decrease of cholesterol content of the entire artery)” value ([2]; orally, doses up to 0.3 mg/kg for 4 weeks) was 30%, the “HDL cholesterol and rabbit apoA-I (HPLC, SELDI-TOF)” value [2, 3] was “trend towards an increase” and the “VLDL and LDL cholesterol” value [2, 3] was “decreased slightly”. The “pre-established atherosclerotic plaques in aortas of rabbits fed with cholesterol chow” value ([2]; summary statement) was “induced the regression”, the “apoA-I mRNA expression in the liver” value ([2]; treated rabbits) was “increase” and the “bile acid content in the liver” value ([2]; treated rabbits) was “increased”. For the same compound, the “mRNA expressions of LDL receptors and SR-BI in the liver (QPCR)” value ([2]; treated rabbits) was “No change” and the “plasma apoA-I” value ([2]; treated rabbits) was “increase”.
